Columns and labels:
Assay type in all cases: physicochemical
[1] = Polymorphism screen of benzoate salt (thermal cycling, evaporations, antisolvent additions, cooling), XRPD
Description: To render the amorphous and thus remove seeds of the supplied pattern 1 the supplied material was lyophilised in an attempt to render it amorphous. To 2.396 g of the supplied benzoate salt lot 800674000 dioxane (55 ml) and water (5 ml) was added. The mixture was agitated gently and warmed to aid dissolution.
Twenty five of the lyophilised samples were treated with solvent and thermally cycled between ambient and 40° C. with four hours spent under each condition. After three days and solids were isolated by centrifuge filtration and analysed by XRPD.
Twelve samples of the lyophilised material were treated with a minimal volume (ca 0.5 ml) of warm solvent, syringe filtered through a 0.22 micrometre filter and added to a clean HPLC vial and allowed to evaporate at RT. The solvents used and XRPD results following evaporation are detailed in the Table below:
For antisolvent additions thirteen samples of the lyophilised material were dissolved in a small amount of hot solvent (^~0.5 ml). […] A large excess of antisolvent was then added, the vials sealed. After storage at RT overnight, and samples where no solid had been produced were first cooled to 4° C. for ^~24 hrs, and again if no solid was produced, they were cooled to −18° C. Any solids were isolated by centrifuge filtration and analysed by XRPD.
For the cooling experiments twelve samples of the lyophilised material were dissolved in a small amount of hot solvent (^~0.5 ml) and syringe filtered through a 0.22 μm filter into a clean HPLC vial. Samples were allowed to cool to RT, and if no solid was produced to 4° C. and then to −18° C. Solids were isolated by centrifuge filtration and analysed by XRPD.

[2] = Dissolution rate in simulated nasal fluid (UV-fiber optic dissolution apparatus); conditions: 5 mg in 5 mL simulated nasal fluid, 37° C., 150 RPM
Description: The dissolution rate was determined using a method comprising the use of a UV-fiber optic-based dissolution apparatus (one such suitable device is the Rainbow® Dynamic Dissolution Monitor by Pion Inc) and simulated nasal fluid. The simulated nasal fluid comprises 7.45 g/L NaCl, 1.29 g/L KCl, 0.32 g/L CaCl2×2H2O and deionised water.
The dissolution apparatus was set up with a 2 mm probe to measure the dissolution rate. 5 mg of the salt form was transferred into 5 mL of simulated nasal fluid, heated to a constant temperature of 37° C. and stirred at 150 RPM using a crossed stirrer bar. Measurements were taken at 3 s intervals for 130 intervals followed by 60 measurements taken at 10 s intervals for a total time of 16 minutes and 30 s. Detection of dissolution is by UV absorbance.

[3] = Solubility assessments in four different media; conditions: 50 mg per vial; for Observation: 0.5 ml media at 37° C.
Description: Solubility assessments of 5-MeO-DMT oxalate, hydrobromide fumarate and benzoate were performed in four different media: […]

Compound: COc1ccc2[nH]cc(CCN(C)C)c2c1.O=C(O)c1ccccc1 [benzoate salt, 5-MeO-DMT benzoate]
- XRPD Results ([1]; antisolvent addition, solvent DMF, anti solvent PhMe, Cooled −18 C., DJP2202-012-07): No solid
- XRPD Results ([1]; antisolvent addition, solvent EtOH, anti solvent Heptane, Some solid at RT, DJP2202-012-04): Pattern 1
- XRPD Results ([1]; antisolvent addition, solvent EtOH, anti solvent TBME, Cooled −18 C., DJP2202-012-03): No solid
- XRPD Results ([1]; antisolvent addition, solvent IPAC, anti solvent TBME, Cooled −18 C., DJP2202-012-08): No solid
- XRPD Results ([1]; antisolvent addition, solvent MEK, anti solvent Heptane, Some solid at RT, DJP2202-012-10): Pattern 2
- XRPD Results ([1]; antisolvent addition, solvent MEK, anti solvent TBME, Cooled −18 C., DJP2202-012-09): No solid
- XRPD Results ([1]; antisolvent addition, solvent MeCN, anti solvent PhMe, Some solid at RT, DJP2202-012-12): Pattern 4
- XRPD Results ([1]; antisolvent addition, solvent MeCN, anti solvent TBME, Cooled −18 C., DJP2202-012-11): No solid
- XRPD Results ([1]; antisolvent addition, solvent MeOH, anti solvent TBME, Cooled −18 C., DJP2202-012-02): No solid
- XRPD Results ([1]; antisolvent addition, solvent MeOH/water Aw 0.2, anti solvent MeOH, Cooled −18 C., DJP2202-012-01): No solid
- XRPD Results ([1]; antisolvent addition, solvent THF, anti solvent TBME, Cooled −18 C., DJP2202-012-05): No solid
- XRPD Results ([1]; antisolvent addition, solvent dioxane, anti solvent TBME, Cooled −18 C., DJP2202-012-06): No solid
- XRPD Results ([1]; cooling experiment, EtOH, Solid at RT, DJP2202-013-05): Pattern 4
- XRPD Results ([1]; cooling experiment, IPA, Solid at RT, DJP2202-013-06): Pattern 4
- XRPD Results ([1]; cooling experiment, IPAC, Solid at RT, DJP2202-013-10): Pattern 4
- XRPD Results ([1]; cooling experiment, MEK, Solid at RT, DJP2202-013-11): Pattern 2
- XRPD Results ([1]; cooling experiment, MeCN, Solid at RT, DJP2202-013-12): Pattern 4
- XRPD Results ([1]; cooling experiment, MeOH/water Aw 0.2, Cooled −18 C., DJP2202-013-01): Pattern 4
- XRPD Results ([1]; cooling experiment, MeOH/water Aw 0.6, Cooled −18 C., DJP2202-013-02): no solids
- XRPD Results ([1]; cooling experiment, MeOH, Cooled −18 C., DJP2202-013-04): no solids
- XRPD Results ([1]; cooling experiment, THF, Solid at RT, DJP2202-013-07): Pattern 4
- XRPD Results ([1]; cooling experiment, Water, Cooled −18 C., DJP2202-013-03): Pattern 4
- XRPD Results ([1]; cooling experiment, chlorobenzene, Solid at RT, DJP2202-013-09): mix #4 #2
- XRPD Results ([1]; cooling experiment, dioxane, Solid at RT, DJP2202-013-08): Pattern 3
- XRPD Result ([1]; evaporation at RT of lyophilised material from 1-PrOH, DJP2202-010-02): Oil
- XRPD Result ([1]; evaporation at RT of lyophilised material from EtOH, DJP2202-010-05): Oil
- XRPD Result ([1]; evaporation at RT of lyophilised material from IPA, DJP2202-010-06): Pattern 4
- XRPD Result ([1]; evaporation at RT of lyophilised material from IPAC, DJP2202-010-10): Pattern 2
- XRPD Result ([1]; evaporation at RT of lyophilised material from MEK, DJP2202-010-11): Pattern 4
- XRPD Result ([1]; evaporation at RT of lyophilised material from MIBK, DJP2202-010-04): Oil
- XRPD Result ([1]; evaporation at RT of lyophilised material from MeCN, DJP2202-010-12): Pattern 4
- XRPD Result ([1]; evaporation at RT of lyophilised material from THF, DJP2202-010-07): Pattern 4
- XRPD Result ([1]; evaporation at RT of lyophilised material from chlorobenzene, DJP2202-010-09): Pattern 4
- XRPD Result ([1]; evaporation at RT of lyophilised material from dioxane, DJP2202-010-08): Pattern 4
- XRPD Result ([1]; thermal cycle ambient/40° C., 3 days, 1,4-Dioxane 200 μl, isolated after thermal cycle, DJP2202-006-01): Pattern 3
- XRPD Result ([1]; thermal cycle ambient/40° C., 3 days, 1-Propanol 200 μl, isolated after thermal cycle, DJP2202-006-02): Pattern 4
- XRPD Result ([1]; thermal cycle ambient/40° C., 3 days, 2-Butanol 200 μl, isolated after thermal cycle, DJP2202-006-03): Pattern 4
- XRPD Result ([1]; thermal cycle ambient/40° C., 3 days, 2-Me-1-PrOH 200 μl, isolated after thermal cycle, DJP2202-006-21): Pattern 4
- XRPD Result ([1]; thermal cycle ambient/40° C., 3 days, 2-Methyltetrahydrofuran 200 μl, isolated after thermal cycle, DJP2202-006-05): Pattern 4
- XRPD Result ([1]; thermal cycle ambient/40° C., 3 days, 2-Propanol 200 μl, isolated after thermal cycle, DJP2202-006-06): Pattern 4
- XRPD Result ([1]; thermal cycle ambient/40° C., 3 days, Acetone 200 μl, isolated after thermal cycle, DJP2202-006-07): Pattern 4
- XRPD Result ([1]; thermal cycle ambient/40° C., 3 days, Acetonitrile 200 μl, isolated after thermal cycle, DJP2202-006-08): Pattern 4
- XRPD Result ([1]; thermal cycle ambient/40° C., 3 days, Anisole 200 μl, isolated after thermal cycle, DJP2202-006-09): Pattern 4
- XRPD Result ([1]; thermal cycle ambient/40° C., 3 days, Chlorobenzene 200 μl, isolated after thermal cycle, DJP2202-006-10): Pattern 4 +
- XRPD Result ([1]; thermal cycle ambient/40° C., 3 days, Ethanol 150 μl, isolated after thermal cycle, DJP2202-006-11): Pattern 4
- XRPD Result ([1]; thermal cycle ambient/40° C., 3 days, Ethyl acetate 200 μl, isolated after thermal cycle, DJP2202-006-12): Pattern 4
- XRPD Result ([1]; thermal cycle ambient/40° C., 3 days, Formamide 150 μl, isolated after thermal cycle, DJP2202-006-17): Pattern 4
- XRPD Result ([1]; thermal cycle ambient/40° C., 3 days, Isopropyl acetate 200 μl, isolated after thermal cycle, DJP2202-006-13): Pattern 4
- XRPD Result ([1]; thermal cycle ambient/40° C., 3 days, MeOH/water 360/640 Calc Aw 0.821, 200 μl, clear solution, evaporated to solid, DJP2202-006-25): Pattern 1
- XRPD Result ([1]; thermal cycle ambient/40° C., 3 days, MeOH/water 693/307 Calc Aw 0.599, 200 μl, clear solution, evaporated to solid, DJP2202-006-24): Pattern 1
- XRPD Result ([1]; thermal cycle ambient/40° C., 3 days, Methanol 200 μl, clear solution, evaporated to solid, DJP2202-006-14): Pattern 1
- XRPD Result ([1]; thermal cycle ambient/40° C., 3 days, Methylethyl ketone 200 μl, isolated after thermal cycle, DJP2202-006-16): Pattern 4
- XRPD Result ([1]; thermal cycle ambient/40° C., 3 days, Propyl acetate 200 μl, isolated after thermal cycle, DJP2202-006-15): Pattern 4
- XRPD Result ([1]; thermal cycle ambient/40° C., 3 days, Tetrahydrofuran 200 μl, isolated after thermal cycle, DJP2202-006-22): Pattern 4
- XRPD Result ([1]; thermal cycle ambient/40° C., 3 days, iso-Propyl acetate 200 μl, isolated after thermal cycle, DJP2202-006-20): Pattern 4
- dissolution rate [2]: almost instantaneous
- pH after addition of 0.5 ml media at 37° C. ([3]; SNF): 6.77
- Observation ([3]; SNF): Clear solution
- pH after addition of 0.5 ml media at 37° C. ([3]; pH 1.2 buffer): 5.28
- Observation ([3]; pH 1.2 buffer): Clear solution
- pH after addition of 0.5 ml media at 37° C. ([3]; pH 4.5 buffer): 5.22
- Observation ([3]; pH 4.5 buffer): Clear solution
- pH after addition of 0.5 ml media at 37° C. ([3]; pH 6.8 buffer): 6.82
- Observation ([3]; pH 6.8 buffer): Clear solution
